# Experimental data: patent US20250082611A1, “DOSING REGIMEN FOR AN NLRP3 INHIBITOR IN THE TREATMENT OF OSTEOARTHRITIS” (Novartis AG, priority 2021, published 2025)
# Where two headings read alike, the source gives them in different places.
# Key:
# [1] = First-in-human study: safety and tolerability in healthy subjects; type: in vivo
# From the text: The study design comprised of 4 parts: single ascending dose (SAD; Part A), relative bioavailability of tablet formulations (Part B), multiple ascending dose (MAD; Part C), and relative bioavailability and food effect (Part D) (FIG. 2; RF=Reference Formulation (crystalline suspension); T2=Test Formulation 2 (crystalline tablet); T3=Test Formulation 3 (spray-dried dispersion suspension); T4=Test Formulation 4 (encapsulated crystalline tablet)). In each group of Parts A and C, 8 subjects were randomized in a 3:1 ratio to receive Compound IA (6 subjects) or matching placebo (2 subjects).
# For Part A, eight cohorts of eight eligible subjects were enrolled. Each subject received a single oral dose of Compound IA (3, 10, 30, 100, 300 mg of crystalline suspension and 100, 300, 600 mg of spray-dried dispersion (SDD) under fasted conditions. As this was a FIH study, two sentinel subjects were dosed first, at least 24 hours before the rest of the cohort was dosed, to assure maximum safety. Part B was skipped because the data from Part A provided for an adequate comparison of crystalline and SDD formulations.
# For part C, eligible subjects were enrolled in six different cohorts. […] Subjects were dosed in Part C following review available safety, tolerability and PK data from preceding groups in Part A.
# Safety assessments in all parts of the study included adverse event (AE) reporting using the Medical Dictionary for Regulatory Activities (version 22.1), clinical laboratory tests (biochemistry, hematology, and urinalysis), vital signs, electrocardiograms (ECGs), physical examination and skin biopsy (as applicable).
# [2] = system: ex-vivo stimulated IL-1β release in whole blood; experiment: First-in-human study: ex-vivo LPS stimulation of whole blood, IL-1β release (PD); type: cell-based
# Procedure: To determine the PD response to NLRP3 inhibition, whole blood samples were collected for exploratory PD analysis (Part A and Groups 1-3 of Part C). An ex-vivo stimulation by activating the NLRP3 inflammasome with lipopolysaccharide (LPS) was evaluated compared to control conditions, followed by analysis of blood cell release of the inflammatory marker IL-1β.
# Combined individual and mean plots of the individual IL-1β concentrations versus time are presented by treatment. Modeling of Compound IA effects on a corrected, stimulated ex vivo Lipopolysaccharide (LPS) challenge in whole blood included evaluation of the relationship between LPS challenge results by conditionally weighted residual modeling.
# [3] = in vivo
# Procedure: The safety of the treatment period is supported by 13-week GLP toxicology studies in rat and cynomolgus monkey. […] Safety margins for COMPOUND IA dosed at 25 mg b.i.d. based on 13-week GLP toxicology studies: […]
# [4] = fractional Emax model with Hill coefficient
compound,measurement,setting,value
"CC(C)(O)c1ncc([S@](N)(=O)=NC(=O)Nc2c3c(cc4c2CCC4)CCC3)s1 [Compound IA, (R)-N′-((1,2,3,5,6,7-hexahydro-s-indacen-4-yl)carbamoyl)-2-(2-hydroxypropan-2-yl) thiazole-5-sulfonimidamide]",subjects with TEAEs considered related to study drug,[1]; 21/94 who received Compound IA,22%
same,subjects reporting treatment emergent adverse events (TEAEs),"[1]; Compound IA arm, 66/94 subjects",70%
same,skin rash,"[1]; dosed once daily with 30, 100, and 200 mg",skin rashes have been observed in some participants
same,dose relation of maculopapular and/or pruritic skin rashes,"[1]; human, in vivo",most frequently reported at the higher multiple dose levels
same,intensity of skin rash/pruritus TEAEs,"[1]; human, in vivo",mild to moderate
same,"subjects with mild, non-clinically significant decrease in neutrophil and leukocyte counts","[1]; human, in vivo",27 subjects
same,"vital signs, 12-lead ECG, 24-hour Holter monitoring, physical examination","[1]; human, in vivo",No other clinically relevant findings
same,subjects with skin rash and/or pruritus,[1]; multiple dose 30 mg QD,2 n
same,subjects with skin rash and/or pruritus,[1]; multiple dose 50 mg BID,3 n
same,subjects with skin rash and/or pruritus,[1]; multiple dose 100 mg QD,3 n
same,subjects with skin rash and/or pruritus,[1]; multiple dose 200 mg QD,2 n
same,neutrophil and leukocyte counts,"[1]; non-clinically significant, occasionally noted",Mild decreases
same,subjects with TEAEs of maculopapular skin rash and/or pruritus (adverse events of special interest),"[1]; of 122 enrolled, all received Compound IA",12 subjects
same,tolerability,"[1]; single and multiple oral doses, healthy subjects",generally well tolerated
same,subjects with skin rash and/or pruritus,[1]; single dose 100 mg,1 n
same,subjects with skin rash and/or pruritus,[1]; single dose 600 mg,1 n
same,deaths or serious adverse events,[1]; whole study,No deaths or serious adverse events (SAEs) were reported
same,IC90,"[2]; Homo sapiens, LPS challenge, median, 90% CI 2.84, 3.54, read-out: IC90, inhibiting 90% of ex-vivo stimulated IL-1β release",3.18 µM
same,IC50,"[2]; Homo sapiens, relative to 100% inhibition, 90% CI 0.118, 0.179",0.146 µM
same,EC50,"[2]; Homo sapiens, relative to estimated maximum effect, 90% CI 0.114, 0.171",0.141 µM
same,EC90,"[2]; Homo sapiens, relative to estimated maximum effect, 90% CI 2.24, 2.94",2.57 µM
same,"Emax of IL-1β, arithmetic mean (±SD)",[2]; [4],−0.985 (±0.00277)
same,"observed stimulation effect of IL-1β, arithmetic mean (±SD)",[2]; [4],1820 (±102) ng/L
same,time after dosing from which inhibition of IL-1β was observed,[2]; most dose levels,1 h
same,concentrations of IL-1β with increasing doses,[2]; single and multiple oral doses,dose-dependent decreases
same,Exposure multiples RAT NOAEL based on AUC0-24 h,[3],14
same,Exposure multiples RAT NOAEL based on Cmax,[3],34
same,Exposure multiples RAT NOAEL based on AUC0-24 h,[3]; 25 mg,7
same,Exposure multiples RAT NOAEL based on Cmax,[3]; 25 mg,17
